This note sets out measurements from patent US6586216B2 (Purdue Research Foundation, priority 1997, dated 2003).

Like-named read-outs stand apart in the source and are kept apart here.

Type in all cases: biochemical
For assay [1], the target named is T1, Bacillus subtilis glutamine PRPP amidotransferase variant S283A (Bacillus subtilis, UniProt P00497, S294A).
T1 construct: Enzymes of the B. subtilis class are synthesized with an NH2 terminal propeptide; made in house; host or cells: E. coli strain TX158 (purF), plasmid pBsF/S283A
Nature of the assay: Inhibition of enzyme activity (glutamate formation) by nucleotides, mutant S283A. Particulars: for increase of concentration for 50% inhibition relative to wild type: ADP-GMP mixture. The source says:
Plasmid pGZ1 was used for production of the wild type enzyme. Plasmid pGZ1 contains a 1.6 kb EcoRI-HindIII purF^+ fragment (Makaroff, C. A., Zalkin, H., Switzer, R. L., and Vollmer, S. J. (1983) J. Biol. Chem. 258, pp. 10586-10593) inserted into the corresponding sites of pUC18. For construction of mutants, the EcoRI-HindIII purF^+ DNA was transferred to pUC118 to yield pBsF. Mutations were constructed by the method of Kunkel et al. (Kunkel, T. A., Roberts, J. D., and Zakour, R. A. (1987) Methods Enzymol. 154, pp. 367-382) using pBsF phagemid DNA. The resulting plasmids were named pBsF/S283A, pBsF/K305Q, pBsF/R307Q, and pBsF/S347A.
Enzyme activity was assayed by measuring the initial rate of formation of the product glutamate. […] Incubation was at 37° C. for 6 min. The reaction was linear with time for at least 20 min under these conditions of assay. Reactions were quenched in a boiling water bath for 2 min, and glutamate was determined by the glutamate dehydrogenase method. The control reaction mixture contained all the components except PRPP.
(§1) Inhibition by nucleotides was determined by the standard assay to which varied concentrations of nucleotide were added. Synergistic inhibition was determined by varying the concentration of one nucleotide in the presence of a fixed concentration of a second nucleotide. Relative activity (see FIG. 1) refers to the enzyme activity at a given concentration of the varied nucleotide relative to that in the absence of the varied nucleotide. I0.5 values were calculated from plots of relative activity versus varied nucleotide concentration.
Site directed mutagenesis was utilized to modify amino acids comprising the A site and C site domains of the glutamine PRPP amidotransferase. These modified forms of amidotransferase were analyzed to determine the impact of the mutations on end-product inhibition and enzymatic activity. Inhibition by nucleotides was determined as described in Example 1.

For assay [2], the target named is T2, glutamine PRPP amidotransferase S283A mutant enzyme (Bacillus subtilis, UniProt P00497, S294A).
T2 construct: Enzymes of the B. subtilis class are synthesized with an NH2 terminal propeptide and an Fe—S center; made in house; host or cells: E. coli strain TX158 (purF) with plasmid pBsF/S283A
Particulars: for higher concentration required for 50% inhibition compared to wild type: ADP-GMP mixture. As for the experimental part:
(§2) Enzyme activity was assayed by measuring the initial rate of formation of the product glutamate. […] Incubation was at 37° C. for 6 min. […] Reactions were quenched in a boiling water bath for 2 min, and glutamate was determined by the glutamate dehydrogenase method.
as §1
(§3) These modified forms of amidotransferase were analyzed to determine the impact of the mutations on end-product inhibition and enzymatic activity. Inhibition by nucleotides was determined as described in Example 1.

Assay [3] has as its target T3, glutamine PRPP amidotransferase K305Q mutant enzyme (Bacillus subtilis, UniProt P00497, K316Q).
T3 construct: Enzymes of the B. subtilis class are synthesized with an NH2 terminal propeptide and an Fe—S center; made in house; host or cells: E. coli strain TX158 (purF) with plasmid pBsF/K305Q
As for the experimental part:
as §2, §1, §3

For assay [4], the target named is T4, glutamine PRPP amidotransferase R307Q mutant enzyme (Bacillus subtilis, UniProt P00497, R318Q).
T4 construct: Enzymes of the B. subtilis class are synthesized with an NH2 terminal propeptide and an Fe—S center; made in house; host or cells: E. coli strain TX158 (purF) with plasmid pBsF/R307Q
As for the experimental part:
as §2, §1, §3

[5] abbreviates: I0.5, no fixed nucleotide, 2.5 mM PRPP, pH 8.0, 37° C.

T3 sequence (P00497 12-476 K316Q): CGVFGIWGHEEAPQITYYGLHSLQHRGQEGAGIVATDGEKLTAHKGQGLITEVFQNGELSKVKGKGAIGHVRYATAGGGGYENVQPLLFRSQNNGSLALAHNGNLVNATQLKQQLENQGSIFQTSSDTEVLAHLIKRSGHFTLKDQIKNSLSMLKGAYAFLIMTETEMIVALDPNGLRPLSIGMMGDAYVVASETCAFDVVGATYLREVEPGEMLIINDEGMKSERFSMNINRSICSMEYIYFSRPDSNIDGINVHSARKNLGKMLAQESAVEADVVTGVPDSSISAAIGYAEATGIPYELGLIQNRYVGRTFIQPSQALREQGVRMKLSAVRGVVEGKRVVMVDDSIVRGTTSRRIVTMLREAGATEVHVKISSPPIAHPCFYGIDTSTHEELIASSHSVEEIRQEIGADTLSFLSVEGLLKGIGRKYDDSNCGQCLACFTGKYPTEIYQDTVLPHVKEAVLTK
T4 sequence (P00497 12-476 R318Q): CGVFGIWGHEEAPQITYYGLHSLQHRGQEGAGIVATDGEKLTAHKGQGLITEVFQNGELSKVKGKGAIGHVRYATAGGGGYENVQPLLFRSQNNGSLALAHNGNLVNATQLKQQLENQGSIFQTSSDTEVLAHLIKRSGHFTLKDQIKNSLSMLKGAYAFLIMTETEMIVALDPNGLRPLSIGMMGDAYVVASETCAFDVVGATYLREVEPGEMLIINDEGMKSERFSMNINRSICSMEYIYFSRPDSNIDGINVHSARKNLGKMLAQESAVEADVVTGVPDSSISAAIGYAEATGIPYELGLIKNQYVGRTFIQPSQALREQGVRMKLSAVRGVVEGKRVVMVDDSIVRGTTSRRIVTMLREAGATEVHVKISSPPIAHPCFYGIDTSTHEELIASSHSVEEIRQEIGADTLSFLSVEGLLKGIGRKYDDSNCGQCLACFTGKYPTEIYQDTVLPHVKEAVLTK
T2 sequence (P00497 12-476 S294A): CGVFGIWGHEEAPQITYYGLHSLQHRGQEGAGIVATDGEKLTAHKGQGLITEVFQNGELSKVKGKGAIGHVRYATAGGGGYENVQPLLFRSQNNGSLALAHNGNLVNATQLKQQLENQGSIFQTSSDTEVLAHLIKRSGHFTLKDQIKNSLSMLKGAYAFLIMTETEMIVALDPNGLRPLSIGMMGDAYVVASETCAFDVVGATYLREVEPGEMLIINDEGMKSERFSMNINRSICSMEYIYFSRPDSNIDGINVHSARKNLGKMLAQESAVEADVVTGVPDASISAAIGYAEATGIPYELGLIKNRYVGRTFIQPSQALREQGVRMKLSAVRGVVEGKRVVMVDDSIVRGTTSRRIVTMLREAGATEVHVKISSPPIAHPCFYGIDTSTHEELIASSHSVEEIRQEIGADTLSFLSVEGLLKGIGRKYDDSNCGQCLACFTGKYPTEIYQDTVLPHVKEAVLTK
T1 sequence (P00497 12-476 S294A): as above

In general, IC50 refers to the concentration that gives 50% inhibition. On to `Nc1ncnc2c1ncn2[C@@H]1O[C@H](COP(=O)(O)OP(=O)(O)O)[C@@H](O)[C@H]1O` [ADP], for which the “increase of concentration for 50% inhibition relative to wild type” value in assay [1] amounted to 30 fold. Further, the concentration for half-maximal inhibition (IC50) is 4.8 mM in assay [1] (I0.5, fixed GMP 0.50 mM) and 24 mM in assay [1] (setting [5]). For the same compound, the “syn. (decreased I0.5 due to a second nucleotide)” value in assay [1] (fixed GMP 0.50 mM) is listed as 5.0 fold. Further, in assay [1] (no fixed nucleotide), the “I0.5 increase relative to wild type” value is given as 5-7 fold. The “decreased inhibition relative to wild type” value in assay [1] (no fixed nucleotide) was 5-7 fold. Moreover, in assay [2], the “higher concentration required for 50% inhibition compared to wild type” value came to 30 fold. For the same compound, the syn. in assay [2] (fixed GMP 0.50 mM) is 5.0; in assay [3] (fixed GMP 0.50 mM), 2.6; in assay [3] (fixed GMP 5.0 mM) it was 97.0; in assay [4] (fixed GMP 0.50 mM) it was 12.0; in assay [4] (fixed GMP 5.0 mM) it was 156.0.

In the case of `Nc1ncnc2c1ncn2[C@@H]1O[C@H](COP(=O)(O)O)[C@@H](O)[C@H]1O` [AMP], the IC50 in assay [1] (setting [5]) came to 6.1 mM. Besides, in assay [1] (no fixed nucleotide), the “I0.5 increase relative to wild type” value was 5-7 fold and the “decreased inhibition relative to wild type” value was 5-7 fold.

Turning to `Nc1nc2c(ncn2[C@@H]2O[C@H](COP(=O)(O)O)[C@@H](O)[C@H]2O)c(=O)[nH]1` [GMP], the “increase of concentration for 50% inhibition relative to wild type” value in assay [1] is on record as 13 fold. In addition, the IC50 in assay [1] (I0.5, fixed ADP 0.5 mM) amounted to 2 mM; in assay [1] (I0.5, fixed ADP 2.5 mM) it was 1.7 mM; in assay [1] (setting [5]), 6.6 mM. Further, the “syn. (decreased I0.5 due to a second nucleotide)” value in assay [1] (fixed ADP 0.5 mM) was found to be 3.3 fold; in assay [1] (fixed ADP 2.5 mM) it was 3.9 fold. In addition, the “inhibition compared with wild type” value in assay [1] (no fixed nucleotide) was “similar”. Moreover, the “higher concentration required for 50% inhibition compared to wild type” value in assay [2] was determined as 13 fold. Also, the syn. in assay [2] (fixed ADP 0.5 mM) turned out to be 3.3; in assay [2] (fixed ADP 2.5 mM), 3.9; in assay [3] (fixed ADP 0.5 mM), 8.3; in assay [3] (fixed ADP 2.5 mM) it was 38.0; in assay [4] (fixed ADP 0.5 mM), 15.0; in assay [4] (fixed ADP 2.5 mM), 66.0. Besides, the “I0.5 increase relative to wild type” value in assay [2] (single nucleotide) is on record as “similar”.
